Data from patent US20080311589A1, “METHOD OF HIGH-THROUGHPUT SCREENING OF MOLECULES AND COMPOUNDS FOR THEIR EFFECTS ON BIOLOGICAL AND CHEMICAL PROCESSES” (priority 1999, published 2008).

How the values were obtained:
[1] = tested on: transiently transfected TGFβ-responsive reporter; assay: transient transfection luciferase assay, p3TPLux; type: cell-based, mink
Protocol: LUCIFERASE ASSAYS: Our transient transfection luciferase assay was described previously by us (Stockwell et al., Chem Biol 5:385, 1998). Briefly, 100,000 Mv1Lu mink lung epithelial cells were transiently transfected in 12-well dishes with 400 ng p3TPLux or pNFkB-Lux, with or without 50 ng pFC-MEKK, in 300 μL minimal essential medium with non-essential amino acids. The DEAE-dextran/chloroquine/DMSO methods was used for transfection (Stockwell et al., Chem Biol 6:71, 1999). After cell lysis in 120 μL lysis buffer, a Beckman LS 6500 liquid scintillation counter was used in single photon mode to quantitate luminescence. For detection of luciferase activity in 6F cells (including the primary screen), 20,000 6F cells were seeded in 50 μL of 10% mink medium in each well of a white 384-well plate (Nalge Nune International; Naperville, Ill.; cat#164610) using a Multidrop 384 liquid dispenser (Lab Systems; Helsinki, Finland). After 16 hours, medium was removed using a 24 channel wand (V&P Scientific, Inc.; San Diego, Calif.; cat#VP 186L), the cells were washed with 75 μL of 0.2% mink medium (containing 0.2% FBS), and reagents were added in 40 μL of 0.2% medium. For the primary screen, reagents were added by pin transfer using 384 polypropylene pin arrays (Matrix Technologies; Hudson, N.H.). After 24 hours, the cells were cooled on ice and washed twice with 75 μL Hanks Balanced Salt Solution (HBSS; GibcoBRL; cat#24020-117). Then 20 μL lysis buffer (25 mM glycylglycine (Sigma; cat#E-0396), 1% Triton X-100 (Sigma; cat#T-9284), 1 mM dithiothreitol (DTT; Sigma; cat#D-5545), 1 mM phenylmethylsulfonyl fluoride (PMSF; Sigma; cat#P-7626)) was added to each well with a Multidrop. After incubating the cells for five minutes on ice, 20 μL of ATP/luciferin solution was added (25 mM glycylglycine pH 7.8, 15 mM MgSO4, 4 mM EGTA, 6.25 mM K2HPO4 (Sigma; cat#P5504) pH 7.8, 5 mM DTT, 75 μM D-luciferin (Sigma, cat# L-9504, 2 mM ATP (Sigma; cat#A-7699)). Light output was immediately measured with an Analyst 384-well platereader (LJL), with 0.5 second counting time per well.

recombinant Eg5 = biological target: T1, recombinant Eg5 (Xenopus laevis, UniProt P28025); assay: Eg5 driven microtubule gliding in vitro; type: biochemical; conditions: for reversibility of inhibition (washout): monastrol 200 μM, then washout
T1 sequence (P28025 1-1067): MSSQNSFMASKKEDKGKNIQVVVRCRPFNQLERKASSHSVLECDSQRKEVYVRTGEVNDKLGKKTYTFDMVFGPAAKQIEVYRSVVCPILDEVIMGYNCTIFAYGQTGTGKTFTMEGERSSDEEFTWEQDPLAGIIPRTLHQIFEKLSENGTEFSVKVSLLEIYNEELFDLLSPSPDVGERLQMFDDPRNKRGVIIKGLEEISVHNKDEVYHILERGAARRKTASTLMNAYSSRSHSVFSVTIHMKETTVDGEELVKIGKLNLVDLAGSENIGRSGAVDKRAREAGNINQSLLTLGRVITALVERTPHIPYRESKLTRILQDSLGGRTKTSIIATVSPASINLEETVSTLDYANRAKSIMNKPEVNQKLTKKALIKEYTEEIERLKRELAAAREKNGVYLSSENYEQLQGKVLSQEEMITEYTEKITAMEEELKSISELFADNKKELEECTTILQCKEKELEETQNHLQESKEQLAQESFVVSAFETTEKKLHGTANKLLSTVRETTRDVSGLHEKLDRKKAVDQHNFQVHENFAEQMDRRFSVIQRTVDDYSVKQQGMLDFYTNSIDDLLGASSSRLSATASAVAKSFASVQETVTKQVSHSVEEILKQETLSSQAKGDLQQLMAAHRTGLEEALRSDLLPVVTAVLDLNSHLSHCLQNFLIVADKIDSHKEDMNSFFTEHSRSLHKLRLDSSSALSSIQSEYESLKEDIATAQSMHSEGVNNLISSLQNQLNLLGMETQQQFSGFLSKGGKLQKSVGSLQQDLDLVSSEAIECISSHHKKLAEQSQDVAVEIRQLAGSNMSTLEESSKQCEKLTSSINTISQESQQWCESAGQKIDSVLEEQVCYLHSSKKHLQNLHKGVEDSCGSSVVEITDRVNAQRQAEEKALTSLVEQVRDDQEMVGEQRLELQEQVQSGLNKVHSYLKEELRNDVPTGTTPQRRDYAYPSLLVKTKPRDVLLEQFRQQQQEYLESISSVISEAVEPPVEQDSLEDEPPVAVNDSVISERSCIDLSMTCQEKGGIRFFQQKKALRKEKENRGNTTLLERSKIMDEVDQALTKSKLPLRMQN
Protocol: FIG. 26. […] Conventional kinesin motility was not inhibited in the same assay. A. Model for spindle bipolarity. Plus-end directed motors, such as Eg5 are thought to be involved in the separation of the centrosomes and the establishment of a symmetric spindle axis. B. Inhibition of the kinesin Eg5 results in monastrol spindles. Microtubules, green; chromosomes, blue. Eg5 is depicted as homotetramer (9). C. […] After imaging Eg5 driven microtubule gliding in the presence of monastrol (200 μM), the same assay chamber was depleted of compound and the microtubule gliding recorded (Washout). […] D. Chemical structures of monastrol and DHP2.
Mitotic kinesins have been implicated in anti-parallel overlap interactions (Walczak et al., Curr. Biol. 8:903, 1998). Inhibition of the tetrameric mitotic kinesin Eg5 with antibodies induced monoasters (Sawin et al., Nature 359:540, 1992; Blangy et al., Cell 83:125, 1995; Sharp et al., J. Cell Biol. 144:125, 1999). We therefore hypothesized that Eg5 might be a target of monastrol. Like other motile kinesins, Eg5 can drive in vitro microtubule gliding (Sawin et al., Nature 359:540, 1992; Kapoor et al., Proc. Natl. Acad. Sci. USA, 1999). We tested whether monastrol inhibits Eg5 motility in vitro. […] Microtubule attachment to the Eg5 coated coverslip was maintained in the presence of monastrol (FIG. 26C). […] To test whether inhibition of the Eg5 driven microtubule gliding is specific to monastrol, we tested the closely related compound DHP2 (FIG. 26D).

Substance | activation of transiently versus stably transfected TGFβ-responsive reporter [1] | IC50 (recombinant Eg5) | IC50 (inhibitory concentration), Eg5 driven microtubule motility (recombinant Eg5) | reversibility of inhibition (washout) (recombinant Eg5) | reversibility of inhibition (washout) (recombinant Eg5; listed as Monastrol)
TGF-β: anti-mitogen transforming growth factor β, multifunctional polypeptide signaling factor | equally effective |  |  |  | 
monastrol |  | 14 µM | 14 µM | reversible in vitro and in vivo | reversible in vitro
